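1) Cells in 96-well plates. 2) Compound, 48 h, 5 concentrations. 3) Linear interpolation between surrounding doses. 4) Unreached endpoint = highest concentration. The concentration for full growth arrest is given as TGI.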
Tests used:
Assay in all cases: NCI-60 cell line screen, 48 h
[1] = system: M14 melanoma
[2] = system: SK-MEL-5 melanoma
[3] = system: SF-268 CNS
[4] = system: KM12 colon
[5] = system: SW-620 colon
[6] = system: SN12C renal
[7] = system: SK-OV-3 ovarian
[8] = system: UACC-257 melanoma
[9] = system: CCRF-CEM leukemia
[10] = system: NCI-H522 lung
[11] = system: MDA-MB-231 breast
[12] = system: HCT-15 colon
[13] = system: U251 CNS
[14] = system: PC-3 prostate
[15] = system: DU-145 prostate
[16] = system: SNB-75 CNS
[17] = system: MOLT-4 leukemia
[18] = system: HCT-116 colon
[19] = system: HS 578T breast
[20] = system: HCC-2998 colon
[21] = system: OVCAR-3 ovarian
[22] = system: OVCAR-4 ovarian
[23] = system: MALME-3M melanoma
[24] = system: EKVX NSCLC
[25] = system: HOP-92 NSCLC
[26] = system: LOX IMVI melanoma
[27] = system: UO-31 renal
[28] = system: NCI-H23 lung
[29] = system: TK-10 renal
[30] = system: A549 NSCLC
[31] = system: BT-549 breast
[32] = system: MCF7 breast
[33] = system: NCI-H226 lung
[34] = system: SF-539 CNS
[35] = system: MDA-MB-435
[36] = system: A498 renal
[37] = system: UACC-62 melanoma
[38] = system: T-47D breast
[39] = system: RXF 393 renal
[40] = system: NCI/ADR-RES ovarian
[41] = system: OVCAR-8 ovarian
[42] = system: 786-0 renal
[43] = system: MDA-N
[44] = system: SNB-19 CNS
[45] = system: ACHN renal
[46] = system: HOP-62 NSCLC
[47] = system: RPMI-8226 leukemia
[48] = system: CAKI-1 renal
[49] = system: SK-MEL-28 melanoma
[50] = system: IGROV1 ovarian
[51] = system: SK-MEL-2 melanoma
[52] = system: COLO 205 colon
[53] = system: SF-295 CNS
[54] = system: OVCAR-5 ovarian
[55] = system: K-562 leukemia
[56] = system: SR leukemia
[57] = system: NCI-H460 lung
[58] = system: HT29 colon
[59] = system: HL-60(TB) leukemia

Compound: COC(=O)[C@@H](NC(=O)N(CCC#N)CCCN(C(=O)N[C@H](Cc1ccccc1)C(=O)OC)c1ccccc1)C(C)C
- TGI [1]: > 100 µM
- TGI [2]: > 100 µM
- TGI [3]: > 100 µM
- TGI [4]: > 100 µM
- TGI [5]: > 100 µM
- TGI [6]: > 100 µM
- TGI [7]: > 100 µM
- TGI [8]: > 100 µM
- TGI [9]: > 100 µM
- TGI [10]: > 100 µM
- TGI [11]: > 100 µM
- TGI [12]: > 100 µM
- TGI [13]: > 100 µM
- TGI [14]: > 100 µM
- TGI [15]: > 100 µM
- TGI [16]: > 100 µM
- TGI [17]: > 100 µM
- TGI [18]: > 100 µM
- TGI [19]: > 100 µM
- TGI [20]: > 100 µM
- TGI [21]: > 100 µM
- TGI [22]: > 100 µM
- TGI [23]: 92.7 µM
- TGI [24]: > 100 µM
- TGI [25]: 80 µM
- TGI [26]: > 100 µM
- TGI [27]: > 100 µM
- TGI [28]: > 100 µM
- TGI [29]: > 100 µM
- TGI [30]: > 100 µM
- TGI [31]: > 100 µM
- TGI [32]: > 100 µM
- TGI [33]: > 100 µM
- TGI [34]: > 100 µM
- TGI [35]: > 100 µM
- TGI [36]: > 100 µM
- TGI [37]: > 100 µM
- TGI [38]: > 100 µM
- TGI [39]: > 100 µM
- TGI [40]: > 100 µM
- TGI [41]: > 100 µM
- TGI [42]: > 100 µM
- TGI [43]: > 100 µM
- TGI [44]: > 100 µM
- TGI [45]: > 100 µM
- TGI [46]: > 100 µM
- TGI [47]: > 100 µM
- TGI [48]: > 100 µM
- TGI [49]: > 100 µM
- TGI [50]: > 100 µM
- TGI [51]: > 100 µM
- TGI [52]: > 100 µM
- TGI [53]: > 100 µM
- TGI [54]: > 100 µM

Compound: COC(=O)c1c2c(cc3c1CC1(Cc4ccc(C(C)=O)cc4C1)C3)CCC2 (centres undefined)
- TGI [55]: > 100 µM
- TGI [2]: 45.4 µM
- TGI [3]: > 100 µM
- TGI [4]: > 100 µM
- TGI [5]: > 100 µM
- TGI [6]: > 100 µM
- TGI [7]: > 100 µM
- TGI [8]: > 100 µM
- TGI [9]: > 100 µM
- TGI [10]: > 100 µM
- TGI [11]: > 100 µM
- TGI [12]: > 100 µM
- TGI [13]: > 100 µM
- TGI [14]: 82.2 µM
- TGI [15]: > 100 µM
- TGI [16]: > 100 µM
- TGI [17]: 86.5 µM
- TGI [18]: > 100 µM
- TGI [19]: 80.7 µM
- TGI [21]: > 100 µM
- TGI [22]: > 100 µM
- TGI [23]: 61.9 µM
- TGI [24]: > 100 µM
- TGI [25]: > 100 µM
- TGI [26]: 60.2 µM
- TGI [27]: > 100 µM
- TGI [56]: > 100 µM
- TGI [28]: > 100 µM
- TGI [57]: > 100 µM
- TGI [29]: > 100 µM
- TGI [30]: > 100 µM
- TGI [31]: > 100 µM
- TGI [32]: > 100 µM
- TGI [33]: > 100 µM
- TGI [34]: > 100 µM
- TGI [58]: 89 µM
- TGI [35]: 50.8 µM
- TGI [36]: > 100 µM
- TGI [37]: > 100 µM
- TGI [38]: > 100 µM
- TGI [39]: 80 µM
- TGI [40]: > 100 µM
- TGI [41]: > 100 µM
- TGI [42]: > 100 µM
- TGI [43]: 28.5 µM
- TGI [45]: > 100 µM
- TGI [59]: > 100 µM
- TGI [46]: > 100 µM
- TGI [47]: > 100 µM
- TGI [48]: > 100 µM
- TGI [49]: > 100 µM
- TGI [50]: > 100 µM
- TGI [52]: > 100 µM
- TGI [53]: > 100 µM
- TGI [54]: > 100 µM

— PubChem BioAssay (NCI)
